Data from PubChem BioAssay (NCI).
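How tested: cells in 96-well plates exposed to compound for 48 hours at five concentrations. GI50: concentration for 50% inhibition of growth. TGI marks complete inhibition of growth.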

Tests used:
Assay in all cases: NCI-60 cell line screen, 48 h
[1] = tested on: NCI-H460 lung
[2] = tested on: SK-OV-3 ovarian
[3] = tested on: HOP-62 NSCLC
[4] = tested on: MDA-MB-435
[5] = tested on: SK-MEL-5 melanoma
[6] = tested on: SF-539 CNS
[7] = tested on: DU-145 prostate
[8] = tested on: HOP-92 NSCLC
[9] = tested on: NCI/ADR-RES ovarian
[10] = tested on: A498 renal
[11] = tested on: OVCAR-5 ovarian
[12] = tested on: SK-MEL-2 melanoma
[13] = tested on: MOLT-4 leukemia
[14] = tested on: OVCAR-8 ovarian
[15] = tested on: ACHN renal
[16] = tested on: SNB-19 CNS
[17] = tested on: HCT-116 colon
[18] = tested on: NCI-H23 lung
[19] = tested on: BT-549 breast
[20] = tested on: U251 CNS
[21] = tested on: NCI-H522 lung
[22] = tested on: SR leukemia
[23] = tested on: RPMI-8226 leukemia
[24] = tested on: T-47D breast
[25] = tested on: HCT-15 colon
[26] = tested on: RXF 393 renal
[27] = tested on: CAKI-1 renal
[28] = tested on: SF-295 CNS
[29] = tested on: UACC-62 melanoma
[30] = tested on: HCC-2998 colon
[31] = tested on: NCI-H226 lung
[32] = tested on: 786-0 renal
[33] = tested on: M14 melanoma
[34] = tested on: HL-60(TB) leukemia
[35] = tested on: EKVX NSCLC
[36] = tested on: TK-10 renal
[37] = tested on: MALME-3M melanoma
[38] = tested on: OVCAR-4 ovarian
[39] = tested on: MCF7 breast
[40] = tested on: K-562 leukemia
[41] = tested on: IGROV1 ovarian
[42] = tested on: A549 NSCLC
[43] = tested on: MDA-MB-231 breast
[44] = tested on: UACC-257 melanoma
[45] = tested on: COLO 205 colon
[46] = tested on: LOX IMVI melanoma
[47] = tested on: HS 578T breast
[48] = tested on: SNB-75 CNS
[49] = tested on: CCRF-CEM leukemia
[50] = tested on: OVCAR-3 ovarian
[51] = tested on: SK-MEL-28 melanoma
[52] = tested on: SN12C renal
[53] = tested on: HT29 colon
[54] = tested on: SF-268 CNS
[55] = tested on: UO-31 renal
[56] = tested on: PC-3 prostate
[57] = tested on: SW-620 colon
[58] = tested on: KM12 colon

Compound: Nc1no[n+]([O-])c1-c1nnc2c(n1)-c1ccccc1C2=O
- GI50 [1]: 3.38 µM
- TGI [1]: 11.4 µM
- GI50 [2]: 16.2 µM
- TGI [2]: 51.5 µM
- GI50 [3]: 2.74 µM
- TGI [3]: 10 µM
- GI50 [4]: 1.91 µM
- TGI [4]: 3.82 µM
- GI50 [5]: 1.66 µM
- TGI [5]: 3.13 µM
- GI50 [6]: 1.8 µM
- TGI [6]: 3.67 µM
- GI50 [7]: 1.74 µM
- TGI [7]: 3.45 µM
- GI50 [8]: 2.21 µM
- TGI [8]: 6.63 µM
- GI50 [9]: 3.73 µM
- TGI [9]: 32.3 µM
- GI50 [10]: 22.2 µM
- TGI [10]: 63.2 µM
- GI50 [11]: 1.88 µM
- TGI [11]: 3.77 µM
- GI50 [12]: 9.13 µM
- TGI [12]: 24.4 µM
- GI50 [13]: 2.38 µM
- TGI [13]: 6.21 µM
- GI50 [14]: 3.19 µM
- TGI [14]: 10.4 µM
- GI50 [15]: 1.56 µM
- TGI [15]: 3.1 µM
- GI50 [16]: 4.88 µM
- TGI [16]: 16.7 µM
- GI50 [17]: 1.38 µM
- TGI [17]: 3.62 µM
- GI50 [18]: 1.88 µM
- TGI [18]: 4.35 µM
- GI50 [19]: 2.99 µM
- TGI [19]: 12.9 µM
- GI50 [20]: 3.76 µM
- TGI [20]: 13.7 µM
- GI50 [21]: 2.02 µM
- TGI [21]: 5.87 µM
- GI50 [22]: 2.48 µM
- GI50 [23]: 2.76 µM
- TGI [23]: 7.73 µM
- GI50 [24]: 1.91 µM
- TGI [24]: 5.35 µM
- GI50 [25]: 1.83 µM
- TGI [25]: 3.91 µM
- GI50 [26]: 3.22 µM
- TGI [26]: 12.4 µM
- GI50 [27]: 2.3 µM
- TGI [27]: 6.67 µM
- GI50 [28]: 12.5 µM
- TGI [28]: 34.3 µM
- GI50 [29]: 4.47 µM
- TGI [29]: 15.7 µM
- GI50 [30]: 13 µM
- TGI [30]: 26.8 µM
- GI50 [31]: 16.1 µM
- TGI [31]: 37.7 µM
- GI50 [32]: 4.3 µM
- TGI [32]: 16.8 µM
- GI50 [33]: 1.78 µM
- TGI [33]: 3.66 µM
- GI50 [34]: 2.13 µM
- TGI [34]: 5.54 µM
- GI50 [35]: 2.29 µM
- TGI [35]: 5.86 µM
- GI50 [36]: 13.9 µM
- TGI [36]: 27.6 µM
- GI50 [37]: 1.74 µM
- TGI [37]: 3.45 µM
- GI50 [38]: 1.42 µM
- TGI [38]: 2.74 µM
- GI50 [39]: 1.55 µM
- TGI [39]: 3.94 µM
- GI50 [40]: 1.26 µM
- TGI [40]: 4.54 µM
- GI50 [41]: 3.02 µM
- TGI [41]: 11.7 µM
- GI50 [42]: 5.44 µM
- TGI [42]: 20.3 µM
- GI50 [43]: 2.89 µM
- TGI [43]: 9.4 µM
- GI50 [44]: 1.93 µM
- TGI [44]: 3.98 µM
- GI50 [45]: 1.93 µM
- TGI [45]: 4.35 µM
- GI50 [46]: 1.81 µM
- TGI [46]: 4.16 µM
- GI50 [47]: 5.58 µM
- TGI [47]: 65 µM
- GI50 [48]: 17.4 µM
- TGI [48]: 34.5 µM
- GI50 [49]: 3.22 µM
- TGI [49]: 9.37 µM
- GI50 [50]: 0.569 µM
- TGI [50]: 3.83 µM
- GI50 [51]: 3.91 µM
- TGI [51]: 13.4 µM
- GI50 [52]: 1.86 µM
- TGI [52]: 3.51 µM
- GI50 [53]: 2.41 µM
- TGI [53]: 6.74 µM
- GI50 [54]: 4.4 µM
- TGI [54]: 17.3 µM
- GI50 [55]: 2.25 µM
- TGI [55]: 6.75 µM
- GI50 [56]: 2.91 µM
- TGI [56]: 12.6 µM
- GI50 [57]: 1.83 µM
- TGI [57]: 3.65 µM
- GI50 [58]: 3.53 µM
- TGI [58]: 15.3 µM

Compound: C(=C\c1ccc(OCC2CO2)cc1)/C1=NCOC1 (stereo unspecified)
- GI50 [1]: 19.9 µM
- TGI [1]: 57.7 µM
- GI50 [2]: 8.92 µM
- TGI [2]: 25.5 µM
- GI50 [3]: 26 µM
- TGI [3]: 65.3 µM
- GI50 [4]: 11 µM
- TGI [4]: 37.3 µM
- GI50 [5]: 12.6 µM
- TGI [5]: 26.6 µM
- GI50 [6]: 9.48 µM
- TGI [6]: 25.8 µM
- GI50 [7]: 9.82 µM
- TGI [7]: 29.2 µM
- GI50 [8]: 1.41 µM
- TGI [8]: 13.2 µM
- GI50 [9]: 3.86 µM
- TGI [9]: 14.9 µM
- GI50 [10]: 21.9 µM
- TGI [10]: 43.2 µM
- GI50 [11]: 16.4 µM
- TGI [11]: 37.1 µM
- GI50 [12]: 10 µM
- TGI [12]: 36 µM
- GI50 [13]: 3.24 µM
- TGI [13]: 16.8 µM
- GI50 [14]: 5.81 µM
- TGI [14]: 28 µM
- GI50 [15]: 5.47 µM
- TGI [15]: 19.5 µM
- GI50 [16]: 4.73 µM
- TGI [16]: 29.2 µM
- GI50 [17]: 7.01 µM
- TGI [17]: 24.1 µM
- GI50 [18]: 10.7 µM
- TGI [18]: 40.2 µM
- GI50 [19]: 12.4 µM
- TGI [19]: 27.2 µM
- GI50 [20]: 10.1 µM
- TGI [20]: 25 µM
- GI50 [21]: 3.13 µM
- TGI [21]: 13.1 µM
- GI50 [22]: 3.05 µM
- TGI [22]: 11.9 µM
- GI50 [23]: 13.1 µM
- TGI [23]: 37.2 µM
- GI50 [24]: 3.57 µM
- TGI [24]: 18.6 µM
- GI50 [25]: 5.89 µM
- TGI [25]: 21.3 µM
- GI50 [26]: 2.05 µM
- TGI [26]: 6.34 µM
- GI50 [27]: 16.3 µM
- TGI [27]: 40.8 µM
- GI50 [28]: 28.3 µM
- TGI [28]: 84.6 µM
- GI50 [29]: 12.2 µM
- TGI [29]: 26.5 µM
- GI50 [30]: 7.43 µM
- TGI [30]: 22.6 µM
- GI50 [31]: 16.4 µM
- TGI [31]: 34.5 µM
- GI50 [32]: 17.6 µM
- TGI [32]: 53.4 µM
- GI50 [33]: 14.5 µM
- TGI [33]: 88.5 µM
- GI50 [34]: 2.35 µM
- TGI [34]: 9.16 µM
- GI50 [35]: 19.1 µM
- TGI [35]: 58.4 µM
- GI50 [36]: 16.2 µM
- TGI [36]: 39.2 µM
- GI50 [37]: 19.9 µM
- TGI [37]: 58.7 µM
- GI50 [38]: 15.4 µM
- TGI [38]: 31.9 µM
- GI50 [39]: 4.65 µM
- TGI [39]: 46 µM
- GI50 [40]: 4.23 µM
- TGI [40]: > 100 µM
- GI50 [41]: 5.74 µM
- TGI [41]: 20.4 µM
- GI50 [42]: 7.51 µM
- TGI [42]: 39.1 µM
- GI50 [43]: 14.7 µM
- TGI [43]: 30.7 µM
- GI50 [44]: 6.15 µM
- TGI [44]: 26.6 µM
- GI50 [45]: 6.33 µM
- TGI [45]: 32.4 µM
- GI50 [46]: 3.35 µM
- TGI [46]: 13.6 µM
- GI50 [47]: 16 µM
- TGI [47]: 54.2 µM
- GI50 [48]: 16.6 µM
- TGI [48]: 31.6 µM
- GI50 [49]: 2.89 µM
- TGI [49]: 13.3 µM
- GI50 [50]: 7.87 µM
- TGI [50]: 29.1 µM
- GI50 [51]: 6.3 µM
- TGI [51]: 21.4 µM
- GI50 [52]: 10.6 µM
- TGI [52]: 25.9 µM
- GI50 [53]: 6.73 µM
- TGI [53]: 25.8 µM
- GI50 [54]: 7.3 µM
- TGI [54]: 33.8 µM
- GI50 [55]: 3.64 µM
- TGI [55]: 12.8 µM
- GI50 [56]: 13.2 µM
- TGI [56]: 28 µM
- GI50 [57]: 6.1 µM
- TGI [57]: 22.5 µM
- GI50 [58]: 16.5 µM
- TGI [58]: 40.8 µM
